Target: T1, PCP (Phencylidine) receptor (Rattus norvegicus, UniProt P35439)
T1 construct: the pellets were then suspended in 5mM Tris-HCI buffer and used as the receptor preparation; from tissue; host or cells: rat (male Slc-Wistar) cerebral cortex membrane preparation
Assay: Binding test against PCP (Phencylidine) receptor, 3H-TCP displacement in rat cortex membrane preparation
Design: species or system rats (male, Slc-Wistar rat)
Conditions: rat cortex receptor preparation (0.2mg protein/ml), labelled ligand 3H-TCP, 25 °C 30 minutes
Description: Binding test against PCP (Phencylidine) receptor Experiment
After the decapitation of rats (male, Slc-Wistar rat, 10 15 weeks age), the cortex tissues was rapidly removed and each was weighed. The tissue was homogenized with ten-fold amount of ice-cold 50mM Tris-HCI buffer (pH7.4), and centrifuged at 40,000 x g for 10 minutes. This procedure is repeated 3 times. Then the obtained sample was freeze-dried in liquid nitrogen and preserved at -80 ° C On the test day, the sample was thawed at room temperature and centrifuged at 40,000 x g for 10 minutes, the pellets were then suspended in 5mM Tris-HCI buffer and used as the receptor preparation (0.2mg protein/ml). The preparation was added to the mixture containing the labelled ligand (^3H-TCP, […]) and the test drug, and the incubation was carried out (25 °C 30 minutes). The reaction was stopped by rapid filtering through Whatman GF/C filter and the filtrate was washed. Radioactivity on filters was determined by liquid scintillation counter and Ki value was calculated. The Whatmann GF/C filter was soaked in 0.05 % polyethyleneimine. (Literature : Vignon, J. et al., Brain R.,280; 194-197 (1983))

`c1ccc2c(c1)CCc1ccccc1C21CCCN1` [I a-1, Spiro(dibenzosuberane-5,2'-pyrrolidine)] gave a Ki of 0.047 µM.
Molecule `Clc1ccc2c(c1)C1(CCCN1)c1ccccc1CC2` (stereo not drawn) [I a-13, Spiro(3-chlorodibenzosuberane-5,2'-pyrrolidine)] has a Ki of 0.023 µM.
`Cc1ccc2c(c1)C1(CCCN1)c1ccccc1CC2` (stereo not drawn) [I a-7] showed a Ki of 0.031 µM.
Molecule `CCN1CCCC12c1ccccc1CCc1ccc(Cl)cc12` (stereo not drawn) [I a-14] has a Ki of 0.54 µM.
For `Cc1ccc2c(c1)C1(CCCN1C)c1ccccc1CC2` (stereo not drawn) [I a-8], the Ki was 0.51 µM.
`CCN1CCCC12c1ccccc1CCc1ccc(C)cc12` (stereo not drawn) [I a-10] gave a Ki of 0.25 µM.
`CCCN1CCCC12c1ccccc1CCc1ccc(C)cc12` (stereo not drawn) [I a-9, Spiro[3-methyldibenzosuberane-5,2'-(1-n-propylpyrrolidine)]] showed a Ki of 0.77 µM.
`CCN1CCCC12c1ccccc1CCc1ccccc12` [I a-3, Spiro[dibenzosuberane-5,2'-(1-ethylpyrrolidine)]] gave a Ki of 0.62 µM.
For `Cc1ccc2c(c1)C1(CCCN1Cc1ccccc1)c1ccccc1CC2` (stereo not drawn) [I a-11], the Ki was > 0.71 µM.

Reference: patent EP0456183B1, “Spiro dibenzosuberane derivatives” (SHIONOGI SEIYAKU KABUSHIKI KAISHA, priority 1990, dated 1991)
